Assay results as given in article PMC7217030 (Journal of medicinal chemistry, 2018).

What was measured:
[1] = biological target: T1, glucocorticoid receptor (GR) LBD fused to GAL4 DBD (Homo sapiens, UniProt P04150); assay: GeneBLAzer nuclear hormone receptor specificity assay, agonist mode, GR; format: cell-based; details: 0.25 to 25 μM
T1 sequence (P04150 524-758 limits assumed): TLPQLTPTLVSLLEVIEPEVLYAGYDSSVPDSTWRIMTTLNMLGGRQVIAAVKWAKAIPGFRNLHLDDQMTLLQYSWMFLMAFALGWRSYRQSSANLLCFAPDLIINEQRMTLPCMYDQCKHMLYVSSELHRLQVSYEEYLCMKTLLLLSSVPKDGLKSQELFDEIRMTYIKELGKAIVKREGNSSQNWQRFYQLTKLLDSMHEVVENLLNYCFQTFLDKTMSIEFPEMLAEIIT

[2] = biological target: T2, progesterone receptor (PR) LBD fused to GAL4 DBD (Homo sapiens, UniProt P06401); assay: GeneBLAzer nuclear hormone receptor specificity assay, agonist mode, PR; format: cell-based; details: 0.25 to 25 μM
T2 sequence (P06401 679-913 limits assumed): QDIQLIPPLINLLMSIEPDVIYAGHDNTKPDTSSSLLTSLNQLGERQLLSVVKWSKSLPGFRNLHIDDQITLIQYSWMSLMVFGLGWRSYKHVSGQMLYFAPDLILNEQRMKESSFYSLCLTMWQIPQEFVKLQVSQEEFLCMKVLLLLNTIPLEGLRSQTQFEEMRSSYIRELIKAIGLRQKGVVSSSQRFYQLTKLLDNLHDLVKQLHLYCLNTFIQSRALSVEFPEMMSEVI

CYP2D6 = CYP2D6 (Homo sapiens, UniProt P10635); assay: P450-Glo cytochrome P450 inhibition, CYP2D6; format: in vitro ADME; details: highest concentration 62.5 μM
ovariectomized mice [3] = assay: Object placement task; details: for time with moved object vs chance, object placement: tested 24 h after training; for preference for moved object vs chance, object placement: within 1 month of ovariectomy
[4] = biological target: T3, mineralocorticoid receptor (MR) LBD fused to GAL4 DBD (Homo sapiens, UniProt P08235); assay: GeneBLAzer nuclear hormone receptor specificity assay, agonist mode, MR; format: cell-based; details: 0.25 to 25 μM
T3 sequence (P08235 726-964 limits assumed): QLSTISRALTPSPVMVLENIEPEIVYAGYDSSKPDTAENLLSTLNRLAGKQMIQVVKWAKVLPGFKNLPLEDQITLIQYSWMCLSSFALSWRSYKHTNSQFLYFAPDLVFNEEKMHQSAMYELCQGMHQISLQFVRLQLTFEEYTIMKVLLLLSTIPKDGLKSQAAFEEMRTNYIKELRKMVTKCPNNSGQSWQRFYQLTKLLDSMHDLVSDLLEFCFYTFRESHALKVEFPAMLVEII

[5] = biological target: T4, full length and native ERα (Homo sapiens, UniProt P03372); assay: Cell-based transcriptional assay, ERα antagonist mode; details: concentrations up to 10 μM
T4 sequence (P03372 1-595): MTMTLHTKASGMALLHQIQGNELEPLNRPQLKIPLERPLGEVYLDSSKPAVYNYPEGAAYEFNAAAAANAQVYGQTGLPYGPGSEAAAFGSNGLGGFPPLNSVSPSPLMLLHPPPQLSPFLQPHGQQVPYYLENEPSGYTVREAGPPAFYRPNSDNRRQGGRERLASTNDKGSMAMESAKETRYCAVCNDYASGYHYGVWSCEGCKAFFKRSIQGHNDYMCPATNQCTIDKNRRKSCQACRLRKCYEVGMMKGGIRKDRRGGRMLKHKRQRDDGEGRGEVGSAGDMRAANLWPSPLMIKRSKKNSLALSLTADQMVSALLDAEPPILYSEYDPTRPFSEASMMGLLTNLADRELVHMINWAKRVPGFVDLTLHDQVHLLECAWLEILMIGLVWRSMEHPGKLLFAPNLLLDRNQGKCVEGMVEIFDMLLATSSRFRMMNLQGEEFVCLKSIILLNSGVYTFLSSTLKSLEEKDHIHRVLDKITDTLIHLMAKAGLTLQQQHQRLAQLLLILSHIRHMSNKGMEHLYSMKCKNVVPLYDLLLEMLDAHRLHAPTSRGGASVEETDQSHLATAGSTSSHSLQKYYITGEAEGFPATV

[6] = biological target: T5, vitamin D receptor (VDR) LBD fused to GAL4 DBD (Homo sapiens, UniProt P11473); assay: GeneBLAzer nuclear hormone receptor specificity assay, agonist mode, VDR; format: cell-based; details: 0.25 to 25 μM
T5 sequence (P11473 127-423 limits assumed): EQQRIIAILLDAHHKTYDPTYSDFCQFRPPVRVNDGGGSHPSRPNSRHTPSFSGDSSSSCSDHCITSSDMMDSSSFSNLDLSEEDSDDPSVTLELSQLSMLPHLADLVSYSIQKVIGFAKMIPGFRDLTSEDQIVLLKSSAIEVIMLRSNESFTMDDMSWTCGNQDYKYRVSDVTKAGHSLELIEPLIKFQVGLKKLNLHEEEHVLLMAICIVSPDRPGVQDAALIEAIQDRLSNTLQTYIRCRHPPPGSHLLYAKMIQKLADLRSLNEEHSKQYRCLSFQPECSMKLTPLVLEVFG

[7] = biological target: T6, androgen receptor (AR) LBD fused to GAL4 DBD (Homo sapiens, UniProt P10275); assay: GeneBLAzer nuclear hormone receptor specificity assay, agonist mode, AR; format: cell-based; details: 0.25 to 25 μM
T6 sequence (P10275 669-900 limits assumed): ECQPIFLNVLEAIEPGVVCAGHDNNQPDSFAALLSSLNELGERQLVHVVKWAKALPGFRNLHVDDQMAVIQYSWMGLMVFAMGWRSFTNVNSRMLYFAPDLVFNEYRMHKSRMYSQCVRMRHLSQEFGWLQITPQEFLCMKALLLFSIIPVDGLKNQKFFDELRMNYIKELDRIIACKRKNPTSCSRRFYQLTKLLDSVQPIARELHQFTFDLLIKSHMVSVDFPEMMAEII

ovariectomized mice [8] = assay: Object recognition task; details: for preference for novel object vs chance, object recognition: IP injection
[9] = biological target: T7, thyroid hormone receptor (TRβ) LBD fused to GAL4 DBD (Homo sapiens, UniProt P10828); assay: GeneBLAzer nuclear hormone receptor specificity assay, agonist mode, TRβ; format: cell-based; details: 0.25 to 25 μM
T7 sequence (P10828 217-461 limits assumed): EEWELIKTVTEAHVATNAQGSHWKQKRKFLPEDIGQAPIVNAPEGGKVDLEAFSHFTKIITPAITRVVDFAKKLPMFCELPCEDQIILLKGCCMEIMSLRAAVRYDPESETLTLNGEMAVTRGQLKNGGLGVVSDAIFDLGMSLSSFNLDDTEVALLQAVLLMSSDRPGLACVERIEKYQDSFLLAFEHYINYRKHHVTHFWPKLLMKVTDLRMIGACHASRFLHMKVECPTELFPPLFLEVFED

[10] = biological target: T8, peroxisome proliferator-activated receptor (PPARδ) LBD fused to GAL4 DBD (Homo sapiens, UniProt Q03181); assay: GeneBLAzer nuclear hormone receptor specificity assay, agonist mode, PPARδ; format: cell-based; details: 0.25 to 25 μM
T8 sequence (Q03181 211-439 limits assumed): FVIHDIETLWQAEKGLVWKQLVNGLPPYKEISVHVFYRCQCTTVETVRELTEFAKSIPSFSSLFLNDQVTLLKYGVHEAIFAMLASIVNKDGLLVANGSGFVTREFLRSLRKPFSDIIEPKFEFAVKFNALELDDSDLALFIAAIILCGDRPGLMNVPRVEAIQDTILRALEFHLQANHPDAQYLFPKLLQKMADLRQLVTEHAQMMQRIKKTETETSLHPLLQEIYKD

CYP1A2 = biological target: T9, CYP1A2 (Homo sapiens, UniProt P05177); assay: P450-Glo cytochrome P450 inhibition, CYP1A2; format: in vitro ADME; details: highest concentration 62.5 μM
T9 sequence (P05177 1-516): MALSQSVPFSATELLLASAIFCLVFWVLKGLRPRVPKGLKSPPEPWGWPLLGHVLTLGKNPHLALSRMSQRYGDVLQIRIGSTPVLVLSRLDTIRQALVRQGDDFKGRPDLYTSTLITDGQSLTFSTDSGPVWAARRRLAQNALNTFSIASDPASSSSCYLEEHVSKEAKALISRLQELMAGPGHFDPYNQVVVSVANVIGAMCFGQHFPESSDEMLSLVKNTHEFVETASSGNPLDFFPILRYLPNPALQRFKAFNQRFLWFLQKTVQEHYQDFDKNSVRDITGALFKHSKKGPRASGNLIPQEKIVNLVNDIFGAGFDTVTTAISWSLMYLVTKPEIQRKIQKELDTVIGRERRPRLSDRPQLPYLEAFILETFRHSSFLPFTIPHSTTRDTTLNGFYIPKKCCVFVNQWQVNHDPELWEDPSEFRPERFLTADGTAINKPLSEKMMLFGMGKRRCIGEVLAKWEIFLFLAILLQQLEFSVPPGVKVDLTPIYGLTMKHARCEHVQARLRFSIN

ERα LBD = biological target: T10, ERα LBD (Homo sapiens, UniProt P03372); assay: LanthaScreen TR-FRET coactivator; format: biochemical
T10 sequence (P03372 311-547 limits assumed): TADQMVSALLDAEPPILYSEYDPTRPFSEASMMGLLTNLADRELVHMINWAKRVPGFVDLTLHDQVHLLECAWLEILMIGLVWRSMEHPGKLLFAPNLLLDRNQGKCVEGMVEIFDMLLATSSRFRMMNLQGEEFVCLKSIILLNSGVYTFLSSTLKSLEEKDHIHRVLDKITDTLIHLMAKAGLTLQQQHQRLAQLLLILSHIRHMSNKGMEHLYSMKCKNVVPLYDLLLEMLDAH

Sequence of CYP2D6 (P10635 whole entry): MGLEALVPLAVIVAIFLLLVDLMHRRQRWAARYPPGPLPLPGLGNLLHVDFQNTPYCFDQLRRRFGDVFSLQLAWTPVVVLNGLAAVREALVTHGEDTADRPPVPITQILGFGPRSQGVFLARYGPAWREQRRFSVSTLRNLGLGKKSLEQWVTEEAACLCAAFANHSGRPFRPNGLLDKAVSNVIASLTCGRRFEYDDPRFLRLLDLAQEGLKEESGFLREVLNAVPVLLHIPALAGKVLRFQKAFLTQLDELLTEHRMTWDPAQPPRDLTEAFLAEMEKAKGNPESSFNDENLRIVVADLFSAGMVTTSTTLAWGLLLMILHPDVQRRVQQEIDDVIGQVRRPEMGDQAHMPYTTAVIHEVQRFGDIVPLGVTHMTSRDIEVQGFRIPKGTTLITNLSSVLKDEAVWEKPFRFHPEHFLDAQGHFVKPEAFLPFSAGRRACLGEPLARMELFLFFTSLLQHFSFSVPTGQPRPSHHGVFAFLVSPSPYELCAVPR

agonist activity at GR [1]: not an agonist | agonist activity at PR [2]: not an agonist | inhibition of CYP2D6 (CYP2D6): no inhibition | agonist activity at MR [4]: not an agonist | ERα antagonist activity [5]: No measurable antagonist activity | agonist activity at VDR [6]: not an agonist | agonist activity at AR [7]: not an agonist | agonist activity at TRβ [9]: not an agonist | agonist activity at PPARδ [10]: not an agonist | inhibition of CYP1A2 (CYP1A2): no inhibition | EC50 (ERα LBD): 2940 nM
SMILES: OC[C@H]1CC[C@H](c2ccc(O)cc2)CC1 [ISP358–2]
time with moved object vs chance, object placement (ovariectomized mice [3]; IP injection, 0.5 mg/kg): spent significantly more time than chance with the moved object | time with moved object vs chance, object placement (ovariectomized mice [3]; IP injection, 5 mg/kg): spent significantly more time than chance with the moved object | time with moved object vs chance, object placement (ovariectomized mice [3]; dorsal hippocampal infusion, 10 pg/hemisphere): did not spend significantly more time than chance with the moved object | time with moved object vs chance, object placement (ovariectomized mice [3]; dorsal hippocampal infusion, 100 pg/hemisphere): spent significantly more time than chance with the moved object | time with moved object vs chance, object placement (ovariectomized mice [3]; dorsal hippocampal infusion, 1 ng/hemisphere): spent significantly more time than chance with the moved object | preference for moved object vs chance, object placement (ovariectomized mice [3]; oral gavage, 0.5 mg/kg): exhibited a significant preference for the moved object relative to chance | preference for moved object vs chance, object placement (ovariectomized mice [3]; oral gavage, 5 mg/kg): exhibited a significant preference for the moved object relative to chance | spatial memory consolidation after long-term estrogen deprivation, object placement (ovariectomized mice [3]; oral gavage, same doses, 4 months after ovariectomy, preliminary): did not enhance spatial memory consolidation | preference for novel object vs chance, object recognition (ovariectomized mice [8]; 0.5 mg/kg, tested 48 h after training): exhibited a significant preference for the novel object relative to chance | preference for novel object vs chance, object recognition (ovariectomized mice [8]; 5 mg/kg, tested 48 h after training): somewhat of a trend for the 5 mg/kg ISP358–2 to prefer the novel object | time with novel object vs chance, object recognition (ovariectomized mice [8]; dorsal hippocampal infusion, 10 pg/hemisphere, tested 48 h after training): Neither the vehicle nor 10 pg of ISP358–2 groups showed a preference for the novel object | time with novel object vs chance, object recognition (ovariectomized mice [8]; dorsal hippocampal infusion, 100 pg/hemisphere, tested 48 h after training): spent significantly more time than chance with the novel object | time with novel object vs chance, object recognition (ovariectomized mice [8]; dorsal hippocampal infusion, 1 ng/hemisphere, tested 48 h after training): spent significantly more time than chance with the novel object | time with novel object vs chance, object recognition (ovariectomized mice [8]; oral gavage, 0.5 mg/kg): spent significantly more time with the novel object relative to chance | time with novel object vs chance, object recognition (ovariectomized mice [8]; oral gavage, 5 mg/kg): spent significantly more time with the novel object relative to chance
